The text below walks through data of patent US10653676B2 (Dana-Farber Cancer Institute, Inc., priority 2010, dated 2020).

In data set [1] the target is T1, USP1/UAF1 complex (Homo sapiens, UniProt O94782, G670A/G671A).
T1 construct: This modified full length USP1 clone was PCR amplified and subcloned into pFastBac-HT vectors; His tag (N); made in house; host or cells: Sf9 insect cells (baculovirus)
Conditions: bioactive libraries; in the range of Al-Ub-treated positive control; previously shown, US 2008/0167229 A1; cited from earlier work.

Data set [2] has as its system HR pathway-proficient breast tumor line. Conditions: preliminary xenograft studies, data not shown. An excerpt: Preliminary breast cancer xenograft studies with one HR pathway-proficient breast tumor line have been conducted.
Data set [3] has as its target T1, USP1/UAF1 complex. Nature of the data set: high throughput screening for inhibitors of USP1 deubiquitinating activity. In kind it is biochemical. To be noted: library of approximately 150,000 compounds. The procedure: The ubiquitin-Rho based enzyme assay for high throughput screening was established in a 384-well format. The reaction buffer containing and USP1/UAF1 complex were added in 384 well plates using automated liquid handling robot-Bio-Tek Microfill (Bio-Tek Instrments Inc., VT), followed by addition of the compounds (in DMSO) from the compound library plates to wells using a pin transfer robotic system at a final concentration of 10 μM. The reaction was composed of 0.1 nM purified USP1/UAF complex, 75 nM ubiquitin Rhodamine (Ub-Rho, Boston Biochem, U-600) and 2 μM ubiquitin. Fluorescence was monitored in a FluoStar Galaxy Fluorometer (BMG Labtech). Fluorescence emission at 535 nm (λex=485 nm) was measured in an automated plate reader Envision 2 (Perkin Elmer, Mass.).
(§1) In order to develop a highly sensitive assay with easy readout for high throughput detection, the fluorogenic compound Ubiquitin-7-amido-4-methylcoumarin (AMC-Ub, Boston Biochem) was used as a substrate for USP1/UAF1 enzyme complex. USP1 catalyzes the cleavage of AMC-Ub, releasing free AMC moiety, which leads to increase in fluorescence emission at 460 nm (λex=380 nm). Dang et al. (1998) Biochemistry 37:1868-79. Catalytic activity towards AMC-Ub increases 35 fold compared to USP1 enzyme alone. Initial enzyme assay development was performed in 96-well plates with 100 μl reaction volume containing 20 mM HEPES-KOH, 0.1 mg/ml ovalbumin (Sigma), 0.5 mM EDTA, and 10 mM DTT. 2.5 nM USP1/UAF1 enzyme complex was mixed with the reaction buffer, incubated at 37° C. for 10 minutes and then 0.3 μM AMC-Ub was added. Fluorescence was measured using a Fluostar Galaxy Fluorometer (BMG Labtech Inc.).
Once the preliminary enzyme assay was established in 96-well format, it was optimized for 384 wells for high throughput screening (HTS) of inhibitors. The major points to be considered were the volume of the reaction and amount of AMC-Ub substrate to be used in the assay. Since the price of AMC-Ub is very high, in order to make it a feasible assay for HTS, lowest workable amount of the AMC conjugate was used. Reaction volume was minimized to 30 μl in order to meet the recommendation of ICCB-L screening facility (Harvard). In the preliminary optimization experiment, a series of pilot experiments were performed with varying AMC-Ub concentrations (0.025 μM to 0.2 μM), along with the varying concentration of USP1/UAF1 complex (0.2 nM to 3.2 nM). […] After incubating the enzyme and buffer at 37° C. for 10 minutes, AMC-Ub was added and fluorescence emission at 460 nm (λex=380 nm) was measured in an automated plate reader Envision 2 (Perkin Elmer). Fluorescence reading for all time points up to one hour was noted and the data for different AMC-Ub concentration range was plotted with each USP1/UAF1 enzyme complex concentration. […]

Data set [4] has as its target T1, USP1/UAF1 complex. Nature of the data set: ubiquitin-AMC in vitro deubiquitination enzyme assay. Conditions: 4 hour preincubation; AMC-Ub in vitro enzyme assay; read-out: IC50. The data set is classed as biochemical. As to the method:
Purified USP1/UAF1 complex was incubated with 1 μM C527 or DMSO for indicated time, followed by the addition of Ub-AMC at 0.5 μM final concentration. The fluorescence at […] was measured to indicate the enzymatic activity of USP1. […] 5A.
The in vitro enzymatic assays were performed using purified proteins from Sf9 cells as described previously (Cohn et al.). The assays using ubiquitin-AMC (Ub-7-amido-4-methylcoumarin; Boston Biochem) as substrate was carried out in a reaction buffer containing 20 mM HEPES-KOH (pH 7.8), 20 mM NaCl, 0.1 mg/ml ovalbumin, 0.5 mM EDTA and 10 mM dithiothreitol. The fluorescence was measured by FluoStar Galaxy Fluorometer (BMG Labtech). For the Ub-vinylsulfone (VS) assay, the proteins were incubated with Ub-VS at 0.5 μM final concentration for 1 h at 30° C., followed by the immunoblotting analysis.
as §1, with “Catalytic activity towards AMC-Ub increases 35 fold compared to USP1 enzyme alone.” left out
Hits from the initial screening were analyzed further in secondary screening. In this step, the compounds were re-tested for inhibition using the AMC-Ub in vitro enzyme assay. After reconfirming inhibition, different concentration range of the inhibitors were tested to show dose dependency of inhibition and IC50 calculation.

The next data set concerns HeLa cells. Nature of the data set: DNA damage response markers by immunoblotting. The data set is classed as cell-based, human. To be noted: 24 hrs, MMC 1 μM positive control, FIG. 9A. As to the method: FIG. 9 is a composite figure showing that C527 causes DNA damage and inhibits the proliferation of tumor cells. […] HeLa cells were treated with C527 at the indicated concentrations for 24 hrs, and cells were subjected to immunoblotting. Mitomycin C (MMC, 1 μM) was used as a positive control. […] HeLa cells were seeded in a 6-well plate and treated with C527 at the indicated concentrations. Cell proliferation was evaluated using a clonogenic assay.
Impaired HR integrity may lead to genotoxic effect. Genotoxic agents are known to directly activate DNA damage response pathways, resulting in FANCD2 monoubiquitination and CHK1 phosphorylation (FIG. 9A).
A general note: A western blot detects proteins with antibodies after separation by electrophoresis.

The subject of data set [5] is endogenous DUB enzyme complexes. Nature of the data set: HA-Ub-VS labelling of other endogenous DUBs in HeLa cell extracts. Conditions: HeLa cell extracts pretreated 4 h (Ub-Ald 5 μM), then Ub-VS 40 min at 30° C.; FIG. 7. The data set is classed as biochemical, human. As to the method: FIG. 7 is a composite figure depicting preferential inhibition of the activity of native USP1/UAF1 by C527. HeLa cell extracts were incubated with ubiquitin-aldehyde (Ub-Ald, 5 μM) or C527 at indicated concentrations for 4 h, followed by the addition of 0.5 μM Ub-Vs for 40 min. The reaction was split into two aliquots and subjected to immunoblotting for HA or USP1, respectively.
The ability of C527 to inhibit the deubiquitinating activity of native USP1 complexes derived from human cells was determined next (FIG. 7). For this purpose, the HA-tagged ubiquitin-VS, an affinity reagent known to covalently modify and trap active DUB enzymes in cell extracts was used. Cell extracts prepared from HeLa cells were pretreated with increasing concentrations of C527 for 4 h, followed by the incubation with Ub-VS for 40 min at 30° C. The enzymatic activity of endogenous DUBs was indicated by the conjugation of Ub-VS, detected as HA-labeling (see FIG. 7, high molecular weight bands). […] Ub-VS conjugation was inhibited by ubiquitin-aldehyde (Ub-Ald), a non-specific inhibitor of DUBs (lane 3).

T1 sequence (O94782 whole entry G670A/G671A): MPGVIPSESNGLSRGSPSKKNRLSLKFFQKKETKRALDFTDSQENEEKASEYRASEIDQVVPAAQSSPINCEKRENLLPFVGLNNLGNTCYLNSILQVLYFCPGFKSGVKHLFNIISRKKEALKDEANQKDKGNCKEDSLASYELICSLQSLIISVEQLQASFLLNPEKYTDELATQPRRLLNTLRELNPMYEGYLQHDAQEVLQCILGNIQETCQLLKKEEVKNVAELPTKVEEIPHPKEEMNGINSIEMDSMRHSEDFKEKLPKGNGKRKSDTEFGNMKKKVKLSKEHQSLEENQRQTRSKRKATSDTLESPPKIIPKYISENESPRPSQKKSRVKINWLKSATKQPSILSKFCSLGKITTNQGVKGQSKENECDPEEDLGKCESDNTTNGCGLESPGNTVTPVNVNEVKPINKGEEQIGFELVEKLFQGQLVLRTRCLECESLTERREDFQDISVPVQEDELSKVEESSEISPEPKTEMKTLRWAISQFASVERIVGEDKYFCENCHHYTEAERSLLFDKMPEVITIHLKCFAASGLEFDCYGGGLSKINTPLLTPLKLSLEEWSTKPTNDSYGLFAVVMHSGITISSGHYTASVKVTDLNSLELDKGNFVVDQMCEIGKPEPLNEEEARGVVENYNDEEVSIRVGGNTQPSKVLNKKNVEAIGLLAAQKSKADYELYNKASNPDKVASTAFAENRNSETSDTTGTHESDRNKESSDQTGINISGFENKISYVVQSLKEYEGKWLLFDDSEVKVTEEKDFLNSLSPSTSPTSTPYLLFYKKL
T1 sequence (Q8TAF3 whole entry partner): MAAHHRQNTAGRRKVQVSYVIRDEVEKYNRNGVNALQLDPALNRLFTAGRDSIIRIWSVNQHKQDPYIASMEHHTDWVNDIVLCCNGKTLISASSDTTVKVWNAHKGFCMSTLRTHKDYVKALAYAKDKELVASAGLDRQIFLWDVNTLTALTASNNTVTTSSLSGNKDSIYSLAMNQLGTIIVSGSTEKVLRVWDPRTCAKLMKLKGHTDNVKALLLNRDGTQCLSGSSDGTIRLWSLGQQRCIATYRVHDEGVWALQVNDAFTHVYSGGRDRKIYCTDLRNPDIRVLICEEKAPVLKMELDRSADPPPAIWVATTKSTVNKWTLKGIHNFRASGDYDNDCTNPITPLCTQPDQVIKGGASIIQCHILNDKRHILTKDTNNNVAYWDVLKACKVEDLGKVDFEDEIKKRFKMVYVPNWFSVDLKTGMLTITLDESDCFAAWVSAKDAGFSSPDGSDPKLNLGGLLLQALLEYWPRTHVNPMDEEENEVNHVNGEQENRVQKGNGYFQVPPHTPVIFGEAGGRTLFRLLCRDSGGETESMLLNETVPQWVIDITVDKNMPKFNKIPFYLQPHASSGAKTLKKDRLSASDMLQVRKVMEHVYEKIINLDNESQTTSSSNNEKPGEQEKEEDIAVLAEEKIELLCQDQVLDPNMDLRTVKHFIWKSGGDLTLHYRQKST

As to `CC[N+](C)(CC)CCC[n+]1c(-c2ccccc2)c2cc(N)ccc2c2ccc(N)cc21.[I-].[I-]` [Biomol AP401 (propidium iodide), propidium iodide], at USP1/UAF1 complex [1], the “fluorescence signal in high throughput screen” value (shortened to “fluorescence signal”) was “substantial low fluorescence signal”. For `CC(C)C[C@H](NC(=O)[C@H](Cc1ccccc1)NC(=O)c1cnccn1)B(O)O` [Bortezomib], in data set [2], the FA/BRCA pathway result is “inhibited the FA/BRCA pathway”. In the case of `NC1=C(Cl)C(=O)c2ccccc2C1=O` [Formula III (933)], the “identified as inhibitor of USP1 in initial in vitro screening” value on USP1/UAF1 complex [3] is recorded as “inhibitors of USP1”. The IC50 is the concentration that gives 50% inhibition. Consider `O=C1Cc2ccccc2C(=O)N1Cc1ccco1` [Formula V (947)], for which, on USP1/UAF1 complex [3], the “identified as inhibitor of USP1 in initial in vitro screening” value is listed as “inhibitors of USP1”. For the same compound, on USP1/UAF1 complex [4], the IC50 was 7.5 µM. For `COc1ccc(CN2C(=O)Cc3ccccc3C2=O)cc1OC` [Formula VI (009)] the same measures were “inhibitors of USP1” and 2.4 µM. Turning to `CO[C@@]12[C@H](COC(N)=O)C3=C(C(=O)C(C)=C(N)C3=O)N1C[C@@H]1N[C@@H]12` [MMC, mitomycin C], in the data set on HeLa cells, the “markers of the DNA damage response (FANCD2 monoubiquitination, CHK1 phosphorylation)” value is listed as “can activate markers of the DNA damage response”. For the compound `CCCCCCCCCCCCCCCC(=O)C1=C(O)C(CO)OC1=O` (centres unmarked) [RK-682], the “fluorescence signal” value on USP1/UAF1 complex [1] is on record as “substantial low fluorescence signal”. On to `CC1(C)CCC2=C(O1)c1ccccc1C(=O)C2=O` [β-lapachone], for which the “fluorescence signal” value on USP1/UAF1 complex [1] is recorded as “substantial low fluorescence signal”. Take Ub-aldehyde [reference compound]: the “Ub-VS labeling of endogenous DUBs (HA-labeling)” value in data set [5] is “inhibited”.
